Results as given in ChEMBL document CHEMBL1156491, “Unexpected inhibition of peptidoglycan LD-transpeptidase from Enterococcus faecium by the beta-lactam imipenem” (J Biol Chem, 2007).
In brackets after ≈: the same amount, converted by molar mass. Activity calls are given as the source filed them. The calls are words filed in the database; no cut-off is given here.

What was measured:
Enterococcus faecium [1] = assay: Inhibition of Enterococcus faecium M512 PBP5fm transpeptidase activity assessed as tetra -aspartate-tetra-aspartate multimer containing D-Ala4 to D-Asp-L-Lys3 cross links at 128 ug/ml by mass spectrometry; set-up: scale not given: the % may be the effect or the level left
Enterococcus faecium [2] = assay: Inhibition of Enterococcus faecium M512 PBP5fm transpeptidase activity assessed as lactoyl tripeptide level; set-up: scale not given: the % may be the effect or the level left
Enterococcus faecium [3] = assay: Inhibition of Enterococcus faecium M512 PBP5fm transpeptidase activity assessed as tetra -aspartate-tetra multimer containing D-Ala4 to D-Asp-L-Lys3 cross links at 128 ug/ml by mass spectrometry; set-up: scale not given: the % may be the effect or the level left
Enterococcus faecium [4] = assay: Antimicrobial activity against Enterococcus faecium D344S by agar dilution method after 48 hrs; assay type: functional
Enterococcus faecium [5] = assay: Inhibition of Enterococcus faecium M512 PBP5fm transpeptidase activity assessed as tetra-aspartate-tetra-aspartate-penta-aspartate multimer containing D-Ala4 to D-Asp-L-Lys3 cross links at 128 ug/ml by mass spectrometry; set-up: scale not given: the % may be the effect or the level left
Enterococcus faecium [6] = assay: Inhibition of Enterococcus faecium M512 PBP5fm transpeptidase activity assessed as lactoyl tetra-peptide level; set-up: scale not given: the % may be the effect or the level left
Enterococcus faecium [7] = assay: Inhibition of Enterococcus faecium M512 PBP5fm transpeptidase activity assessed as tetra -aspartate-penta multimer containing D-Ala4 to D-Asp-L-Lys3 cross links at 128 ug/ml by mass spectrometry; set-up: scale not given: the % may be the effect or the level left
Enterococcus faecium [8] = assay: Inhibition of Enterococcus faecium LD-transpeptidase assessed by formation of Ac2-L-Lys-D-[14C]Ala from Ac2-L-Lys-D-Ala and D-[14C]Ala at 0.5 ug/ml
[9] = Inhibition of Enterococcus faecium LD-transpeptidase assessed by formation of Ac2-L-Lys-D-[14C]Ala from Ac2-L-Lys-D-Ala and D-[14C]Ala
Enterococcus faecium [10] = assay: Inhibition of Enterococcus faecium LD transpeptidase assessed as enzyme aduct at 3.4 uM by mass spectrometry
Enterococcus faecium [11] = assay: Inhibition of Enterococcus faecium M512 PBP5fm transpeptidase activity assessed as tetra -aspartate-tetra -aspartate-tri-aspartate multimer containing D-Ala4 to D-Asp-L-Lys3 cross links at 128 ug/ml by mass spectrometry; set-up: scale not given: the % may be the effect or the level left
Enterococcus faecium [12] = assay: Inhibition of Enterococcus faecium M512 PBP5fm transpeptidase activity assessed as lactoyl penta-peptide level; set-up: scale not given: the % may be the effect or the level left
Enterococcus faecium [13] = assay: Inhibition of Enterococcus faecium M512 PBP5fm transpeptidase activity assessed as tetra -aspartate-penta-aspartate multimer containing D-Ala4 to D-Asp-L-Lys3 cross links at 128 ug/ml by mass spectrometry; set-up: scale not given: the % may be the effect or the level left
Enterococcus faecium [14] = assay: Inhibition of Enterococcus faecium M512 PBP5fm transpeptidase activity assessed as tetra-aspartate-tetra-aspartate-tetra-aspartate multimer containing D-Ala4 to D-Asp-L-Lys3 cross links at 128 ug/ml by mass spectrometry; set-up: scale not given: the % may be the effect or the level left
Enterococcus faecium [15] = assay: Inhibition of Enterococcus faecium M512 PBP5fm transpeptidase activity assessed as lactoyl tetra-aspartate-peptide level; set-up: scale not given: the % may be the effect or the level left
Enterococcus faecium [16] = assay: Antimicrobial activity against Enterococcus faecium M512 by agar dilution method after 48 hrs; assay type: functional; conditions: M512, 48 h
Enterococcus faecium [17] = assay: Inhibition of Enterococcus faecium M512 PBP5fm transpeptidase activity assessed as lactoyl penta-aspartate-peptide level; set-up: scale not given: the % may be the effect or the level left
Enterococcus faecium [18] = assay: Inhibition of Enterococcus faecium M512 PBP5fm transpeptidase activity assessed as tetra-aspartate-tri-aspartate multimer containing D-Ala4 to D-Asp-L-Lys3 cross links at 128 ug/ml by mass spectrometry; set-up: scale not given: the % may be the effect or the level left
Enterococcus faecium [19] = assay: Inhibition of Enterococcus faecium M512 […] transpeptidase activity assessed as tetra-aspartate-tri multimer containing D-Ala4 to D-Asp-L-Lys3 cross links at 128 ug/ml by mass spectrometry; set-up: scale not given: the % may be the effect or the level left
Enterococcus faecium [20] = assay: Inhibition of Enterococcus faecium M512 PBP5fm transpeptidase activity assessed as lactoyl tri-aspartate-peptide level; set-up: scale not given: the % may be the effect or the level left
Enterococcus faecium [21] = assay: Inhibition of Enterococcus faecium M512 LDtfm transpeptidase activity assessed as tri-aspartate-tri-aspartate-tetra multimer containing L-Lys3 to D-Asp-L-Lys3 cross links at 8 ug/ml; set-up: scale not given: the % may be the effect or the level left
Enterococcus faecium [22] = assay: Inhibition of Enterococcus faecium M512 LDtfm transpeptidase activity assessed as tri-aspartate-tetra multimer containing L-Lys3 to D-Asp-L-Lys3 cross links at 8 ug/ml; set-up: scale not given: the % may be the effect or the level left
Enterococcus faecium [23] = assay: Inhibition of Enterococcus faecium M512 LDtfm transpeptidase activity assessed as tri-aspartate-tri-aspartate-tetra-aspartate multimer containing L-Lys3 to D-Asp-L-Lys3 cross links at 8 ug/ml; set-up: scale not given: the % may be the effect or the level left
Enterococcus faecium [24] = assay: Inhibition of Enterococcus faecium M512 LDtfm transpeptidase activity assessed as tri-aspartate-tri-aspartate-tri-aspartate multimer containing L-Lys3 to D-Asp-L-Lys3 cross links at 8 ug/ml; set-up: scale not given: the % may be the effect or the level left
Enterococcus faecium [25] = assay: Inhibition of Enterococcus faecium M512 LDtfm transpeptidase activity assessed as tri-aspartate-penta multimer containing L-Lys3 to D-Asp-L-Lys3 cross links at 8 ug/ml; set-up: scale not given: the % may be the effect or the level left
Enterococcus faecium [26] = assay: Inhibition of Enterococcus faecium M512 LDtfm transpeptidase activity assessed as tri-aspartate-penta-aspartate multimer containing L-Lys3 to D-Asp-L-Lys3 cross links at 8 ug/ml; set-up: scale not given: the % may be the effect or the level left
Enterococcus faecium [27] = assay: Inhibition of Enterococcus faecium M512 LDtfm transpeptidase activity assessed as tri-aspartate-tri-aspartate multimer containing L-Lys3 to D-Asp-L-Lys3 cross links at 8 ug/ml; set-up: scale not given: the % may be the effect or the level left
Enterococcus faecium [28] = assay: Inhibition of Enterococcus faecium M512 LDtfm transpeptidase activity assessed as tri-aspartate-tetra-aspartate multimer containing L-Lys3 to D-Asp-L-Lys3 cross links at 8 ug/ml; set-up: scale not given: the % may be the effect or the level left
Enterococcus faecium [29] = assay: Inhibition of Enterococcus faecium M512 LDtfm transpeptidase activity assessed as tri-aspartate-tri-aspartate-penta-aspartate multimer containing L-Lys3 to D-Asp-L-Lys3 cross links at 8 ug/ml; set-up: scale not given: the % may be the effect or the level left
Enterococcus faecium [30] = assay: Inhibition of Enterococcus faecium M512 LDtfm transpeptidase activity assessed as tri-aspartate tri multimer containing L-Lys3 to D-Asp-L-Lys3 cross links at 8 ug/ml; set-up: scale not given: the % may be the effect or the level left

With `CC(O)[C@H]1C(=O)N2C(C(=O)O)=C(SCCNC=N)C[C@H]12` (single isomer, unassigned) [IMIPENEM ANHYDROUS] the Activity (Enterococcus faecium [1]) was 12%, the Activity (Enterococcus faecium [2]) was 1.4% and the Activity (Enterococcus faecium [3]) was 1.7%. It also gave an MIC (Enterococcus faecium [4]) of 0.25 µg/mL (≈ 0.835 µM), an Activity (Enterococcus faecium [5]) of 3.3% and an Activity (Enterococcus faecium [6]) of 2.2%. For the same compound, the Activity (Enterococcus faecium [7]) was 0.8%, the Activity (Enterococcus faecium [8]) was “Active” and the EC50 [9] was 0.077 µg/mL (≈ 0.257 µM). For the same compound, the Activity (Enterococcus faecium [10]) was “Active”, the Activity (Enterococcus faecium [11]) was 24.7% and the Activity (Enterococcus faecium [12]) was 2.8%. The Activity (Enterococcus faecium [13]) was 11.9%, the Activity (Enterococcus faecium [14]) was 1.6% and the Activity (Enterococcus faecium [15]) was 3%. It also gave an MIC (Enterococcus faecium [16]) of 0.5 µg/mL (≈ 1.67 µM), an Activity (Enterococcus faecium [17]) of 5.4% and an Activity (Enterococcus faecium [18]) of 23.8%. It also gave an Activity (Enterococcus faecium [19]) of 0.9% and an Activity (Enterococcus faecium [20]) of 4.5%.
Work on `CC(O)[C@H]1C(=O)N2C(C(=O)O)=C(S[C@@H]3CN[C@H](C(=O)N(C)C)C3)[C@H](C)[C@H]12` (single isomer, unassigned) [MEROPENEM] yielded an MIC (Enterococcus faecium [4]) of 1 µg/mL (≈ 2.61 µM) and an MIC (Enterococcus faecium [16]) of 8 µg/mL (≈ 20.9 µM).
With `CC1(C)S[C@@H]2[C@H](NC(=O)[C@H](N)c3ccccc3)C(=O)N2[C@H]1C(=O)O` [AMPICILLIN] the Activity (Enterococcus faecium [21]) was 3%, the Activity (Enterococcus faecium [2]) was 7% and the Activity (Enterococcus faecium [22]) was 3.7%. The MIC (Enterococcus faecium [4]) was 0.06 µg/mL (≈ 0.172 µM), the Activity (Enterococcus faecium [23]) was 2.7% and the Activity (Enterococcus faecium [24]) was 6.1%. The Activity (Enterococcus faecium [6]) was 0.5%, the EC50 [9] was over 3200 µg/mL and the Activity (Enterococcus faecium [25]) was 6.8%. It also gave an Activity (Enterococcus faecium [26]) of 6.1%, an Activity (Enterococcus faecium [27]) of 18.7% and an Activity (Enterococcus faecium [12]) of 1.3%. The Activity (Enterococcus faecium [28]) was 6.8%, the Activity (Enterococcus faecium [29]) was 1.8% and the Activity (Enterococcus faecium [15]) was 10.6%. The MIC (Enterococcus faecium [16]) was over 2000 µg/mL, the Activity (Enterococcus faecium [17]) was 3.7% and the Activity (Enterococcus faecium [30]) was 2.8%. For the same compound, the Activity (Enterococcus faecium [20]) was 18.4%.
Compound `CO/N=C(\C(=O)N[C@@H]1C(=O)N2C(C(=O)O)=C(CSc3nc(=O)c(O)nn3C)CS[C@H]12)c1csc(N)n1` [CEFTRIAXONE] has an MIC (Enterococcus faecium [4]) of 2 µg/mL (≈ 3.61 µM), an Activity (Enterococcus faecium [8]) of 200 µg/mL and an EC50 [9] of 19 µg/mL (≈ 34.3 µM). The MIC (Enterococcus faecium [16]) was 128 µg/mL (≈ 231 µM).
Work on `CC1C(S[C@@H]2CN[C@H](C(=O)Nc3cccc(C(=O)O)c3)C2)=C(C(=O)O)N2C(=O)[C@H]([C@H](C)O)[C@@H]12` (some centres not stated) [ETRAPENEM] yielded an MIC (Enterococcus faecium [4]) of 1 µg/mL (≈ 2.1 µM) and an MIC (Enterococcus faecium [16]) of 16 µg/mL (≈ 33.6 µM).
